Results from US11135214B2, “Methods for enhancing the bio availability and exposure of a voltage-gated potassium channel opener” (priority 2018, dated 2021).
“And” between values parts separate entries of the source, which are not always exact repeats. Equal entries are not always repeated. Where two headings read alike, the source gives them in different places.

Test: TMS crossover study, pharmacokinetic analysis
Format: in vivo, human
Conditions: for extrapolated area (% AUCextrap): full PK data set; for Compound A Plasma Concentration: individual subjects; for concentration at 2 h / concentration at 4 h / concentration at 6 h / half-life / AUC(0-t) / Cmax / Tmax / AUC(0-inf) / MRT inf / MRT last / CL/F / Vd/F: male, human, plasma, oral; for Vd/F: read-out: Vz/F normalized
Experimental: A randomized, double-blind, placebo-controlled, transcranial magnetic stimulation (TMS) crossover study investigated the safety, tolerability, pharmacokinetics (PK), and pharmacodynamics (PD) of single doses of Compound A in healthy right-handed male subjects.
Twenty healthy right-handed male subjects were enrolled and randomized in a blinded fashion to receive a single oral dose of 20 mg Compound A or placebo (1:1 randomization ratio) on Day 1, then were crossed over to receive a single dose of the other treatment on Day 7.
Subjects were screened within 27 days prior to entering the study on Day 1. For Period 1, subjects were admitted to the study unit and dosed on Day 1, and discharged on Day 2. For Period 2, following a washout of 6 days, the same subjects were again admitted to the study unit and dosed on Day 7, and discharged on Day 8. All subjects returned to the clinical unit for an outpatient visit on Day 14, and received a follow-up telephone call on Day 37.
Subjects were dosed in a fed state, but the timing of dosing relative to meals was changed during the study, and varied between a high fat or standard meal eaten either 2 h or 30 minutes prior to dosing, and a high fat or standard meal eaten 1 h or 2.5 h after dosing.
The PK parameters for this study were summarized in two ways. Firstly, PK parameters were calculated where possible using the PK samples collected during each 24 h sampling period for Period 1 and Period 2 separately. Secondly, PK parameters were determined using samples beyond the 24 h sampling period (i.e., from Day 7/8 and/or Day 14). For subjects who received Compound A in the first period, PK samples taken prior to placebo treatment provided additional PK timepoints at >24 h. For subjects who received Compound A in the second period, there was no >24 h PK timepoint until a Day 14 PK sample was added. […] The full PK profile data set consists of the 16 subjects for whom PK samples were taken at >24 h post-dose. For discussion of the PK parameters below, the full PK profile data set was generally used, because it allowed more accurate estimation of PK parameters.
Initially, subjects were dosed 2 hours after a high fat meal with a relatively high fat lunch provided 1 hour after dosing. After blinded review of the PK profiles in the initial 8 subjects, the fat content of the lunch was reduced in an attempt to reduce the time to Tmax, so that the Cmax would fall within the timeframe of TMS measurements. In addition, the timing of the meal relative to dose was changed from 2 hours prior, to 30 minutes prior to dose and subsequently the fat content of the breakfast was reduced. All these changes were made in attempts to provide higher plasma levels during the TMS assessment periods. The timing and type of meal for each subject is specified in Table 13. […] As such the PK data is presented without categorization according to meal content, or relative timing of the meal.

[1] = 20 mg, Full PK Profile (N=16), Mean ± SD
[2] = 20 mg, Full PK Profile (N=16), Range
[3] = 20 mg, Full PK Profile Data Set (N=16), Range
[4] = 20 mg, Full PK Profile Data Set (N=16), Mean ± SD

For `Cc1cc(N2CCc3cc(F)ccc3C2)cc(C)c1NC(=O)CC(C)(C)C` [Compound A, N-[4-(6-fluoro-3,4-dihydro-1H-isoquinolin-2-yl)-2,6-dimethylphenyl]-3,3-dimethylbutanamide], the “time of median peak plasma concentrations after administration” value (20 mg oral dose) was “approximately 8 hours”, the Tlast [1] was 235 ± 81.5 h and the Tlast [2] was 142 to 360 h. The MRTinf [3] was 33 ± 304 h, the t1/2 [3] was 48.2 ± 306 h and the Tlast (20 mg, Overall (N=20), Mean) was 23.8 h. It also gave a Tlast (20 mg, Overall (N=20), Range) of 23.1 to 24.3 h, a Tlast (20 mg, Period 1 (N=10), Mean) of 23.8 h and a Tlast (20 mg, Period 1 (N=10), Range) of 23.1 to 24.3 h. For the same molecule, the Tlast (20 mg, Period 2 (N=10), Mean) was 23.8 h, the Tlast (20 mg, Period 2 (N=10), Range) was 23.5 to 24.1 h and the “% AUCextrap, highest values” (20 mg, a number of subjects above 20%) was ≤ 40%. The “extrapolated area (% AUCextrap)” value (20 mg, median) was 19.9%, the “extrapolated area (% AUCextrap)” value (20 mg, range) was 10.6-40.5% and the “Compound A Plasma Concentration” value (Compound A Treatment Period, 20 mg, 2 h, 5 minutes before TMS) was 47.2 ng/mL and 1.55 ng/mL and 34 ng/mL and 0 ng/mL (5×) and 55.2 ng/mL and 10.6 ng/mL and 47.1 ng/mL and 3.1 ng/mL and 1.95 ng/mL and 25.7 ng/mL and 2.74 ng/mL and 10.7 ng/mL and 2.52 ng/mL and 8.01 ng/mL. The “Compound A Plasma Concentration” value (Compound A Treatment Period, 20 mg, 4 h, 5 minutes before TMS) was 38.7 ng/mL and 8.92 ng/mL and 48.4 ng/mL and 16.5 ng/mL and 50 ng/mL and 24.5 ng/mL and 38 ng/mL and 4.91 ng/mL and 2.54 ng/mL and 29.8 ng/mL and 4.06 ng/mL and 60.7 ng/mL and 22.3 ng/mL and 32.7 ng/mL and 52.1 ng/mL and 8.77 ng/mL and 41.9 ng/mL, the “Compound A Plasma Concentration” value (Compound A Treatment Period, 20 mg, 6 h, 5 minutes before TMS) was 49.7 ng/mL and 71.2 ng/mL and 48.5 ng/mL and 47.0 ng/mL and 39.1 ng/mL and 37.6 ng/mL and 4.43 ng/mL and 51.9 ng/mL and 6.23 ng/mL and 57.6 ng/mL and 53.2 ng/mL and 54.9 ng/mL and 52.2 ng/mL and 25.1 ng/mL and 79.4 ng/mL and the “Compound A Plasma Concentration” value (Placebo Treatment Period (carry-over), 2 h) was 0 ng/mL (9×) and 4.96 ng/mL and 5.27 ng/mL and 6.28 ng/mL and 3.81 ng/mL and 5.74 ng/mL and 3.94 ng/mL and 7.44 ng/mL and 8.04 ng/mL. The “Compound A Plasma Concentration” value (Placebo Treatment Period (carry-over), 4 h) was 0 ng/mL (9×) and 4.35 ng/mL and 4.48 ng/mL and 5.51 ng/mL and 3.6 ng/mL and 5.36 ng/mL and 3.66 ng/mL and 6.83 ng/mL and 8.15 ng/mL, the “Compound A Plasma Concentration” value (Placebo Treatment Period (carry-over), 6 h) was 0 ng/mL (8×) and 5.56 ng/mL and 5.75 ng/mL and 3.42 ng/mL and 5.61 ng/mL and 3.44 ng/mL and 6.67 ng/mL and 8.22 ng/mL and the “Average high concentration of Compound A” value (during TMS assessment (FIG. 11, 12)) was 45 ng/mL. It also gave a concentration at 2 h (20 mg, Compound A Treatment Period, 2 h, Mean) of 15.9 ng/mL, a concentration at 4 h (20 mg, Compound A Treatment Period, 4 h, Mean) of 30.1 ng/mL and a concentration at 6 h (20 mg, Compound A Treatment Period, 6 h, Mean) of 42.1 ng/mL. It also gave a half-life [1] of 127 ± 84.6 h, an AUC(0-t) (20 mg, Full PK Profile (N=16), Mean ± SD, read-out: AUC0-24) of 692 ± 151 ng·h/mL and a Cmax (20 mg, Full PK Profile (N=16), Mean ± SD, read-out: Cmax) of 60.1 ± 14.9 ng/mL. For the same molecule, the Tmax (20 mg, Full PK Profile (N=16), Median) was 6.83 h, the Tmax [2] was 1.92 to 12 h and the half-life [2] was 48.2 to 306 h. For the same molecule, the AUC(0-t) (20 mg, Full PK Profile (N=16), Range, read-out: AUC0-24) was 383 to 951 ng·h/mL, the Cmax (20 mg, Full PK Profile (N=16), Range, read-out: Cmax) was 29.9 to 79.4 ng/mL and the AUC(0-inf) [4] was 3160 ng·h/mL. The MRT inf [4] was 102 h, the MRT last [4] was 77.4 ± 23.7 h and the half-life [4] was 127 h. It also gave an AUC(0-t) (20 mg, Full PK Profile Data Set (N=16), Mean ± SD, read-out: AUClast) of 2370 ng·h/mL, a CL/F (20 mg, Full PK Profile Data Set (N=16), Mean ± SD, read-out: CL/F normalized (converted)) of 1.62 mL/min/kg and a Vd/F [4] of 16.3 L/kg. For the same molecule, the AUC(0-inf) [3] was 1920 ± 7390 ng·h/mL, the MRT inf [3] was 33 to 304 h and the MRT last [3] was 48.2 ± 122 h. The half-life [3] was 48.2 to 306 h, the AUC(0-t) (20 mg, Full PK Profile Data Set (N=16), Range, read-out: AUClast) was 1580 ± 4400 ng·h/mL and the CL/F (20 mg, Full PK Profile Data Set (N=16), Range, read-out: CL/F normalized (converted)) was 0.672 mL/min/kg. It also gave a Vd/F [3] of 6.4 ± 33.8 L/kg, a half-life (20 mg, Overall (N=20), 24 h sampling, Mean ± SD) of 11.1 ± 2.6 h and a half-life (20 mg, Overall (N=20), 24 h sampling, Range) of 8.01 to 14.9 h. For the same molecule, the AUC(0-t) (20 mg, Overall (N=20), Mean ± SD, read-out: AUC0-24) was 687 ± 160 ng·h/mL, the Cmax (20 mg, Overall (N=20), Mean ± SD, read-out: Cmax) was 59.2 ± 13.8 ng/mL and the Tmax (20 mg, Overall (N=20), Median) was 7.8 h. The Tmax (20 mg, Overall (N=20), Range) was 1.9 to 12 h, the AUC(0-t) (20 mg, Overall (N=20), Range, read-out: AUC0-24) was 358 to 951 ng·h/mL and the Cmax (20 mg, Overall (N=20), Range, read-out: Cmax) was 29.9 to 79.4 ng/mL. The half-life (20 mg, Period 1 (N=10), 24 h sampling, Mean ± SD) was 11.4 ± 2.6 h, the half-life (20 mg, Period 1 (N=10), 24 h sampling, Range) was 8.46 to 14.9 h and the AUC(0-t) (20 mg, Period 1 (N=10), Mean ± SD, read-out: AUC0-24) was 693 ± 184 ng·h/mL. The Cmax (20 mg, Period 1 (N=10), Mean ± SD, read-out: Cmax) was 60.2 ± 17.3 ng/mL, the Tmax (20 mg, Period 1 (N=10), Median) was 6.94 h and the Tmax (20 mg, Period 1 (N=10), Range) was 1.92 to 12 h. The AUC(0-t) (20 mg, Period 1 (N=10), Range, read-out: AUC0-24) was 383 to 951 ng·h/mL, the Cmax (20 mg, Period 1 (N=10), Range, read-out: Cmax) was 29.9 to 77.1 ng/mL and the half-life (20 mg, Period 2 (N=10), 24 h sampling, Mean ± SD) was 10.6 ± 2.9 h. The half-life (20 mg, Period 2 (N=10), 24 h sampling, Range) was 8.01 to 14.3 h, the AUC(0-t) (20 mg, Period 2 (N=10), Mean ± SD, read-out: AUC0-24) was 681 ± 142 ng·h/mL and the Cmax (20 mg, Period 2 (N=10), Mean ± SD, read-out: Cmax) was 58.3 ± 9.94 ng/mL. For the same molecule, the Tmax (20 mg, Period 2 (N=10), Median) was 7.83 h, the Tmax (20 mg, Period 2 (N=10), Range) was 1.92 to 8.15 h and the AUC(0-t) (20 mg, Period 2 (N=10), Range, read-out: AUC0-24) was 358 to 869 ng·h/mL. It also gave a Cmax (20 mg, Period 2 (N=10), Range, read-out: Cmax) of 46.2 to 79.4 ng/mL, a concentration at 2 h (20 mg, Placebo Treatment Period (carry-over), 2 h, Mean, read-out: Compound A Plasma Concentration) of 5.46 ng/mL and a concentration at 4 h (20 mg, Placebo Treatment Period (carry-over), 4 h, Mean, read-out: Compound A Plasma Concentration) of 5.17 ng/mL. For the same molecule, the concentration at 6 h (20 mg, Placebo Treatment Period (carry-over), 6 h, Mean, read-out: Compound A Plasma Concentration) was 5.28 ng/mL, the CL/F (20 mg, equivalent of 97.5 mL/h/kg, read-out: Body weight normalized clearance (CL/F)) was ~1.6 mL/min/kg and the Cmax (20 mg, subjects who received placebo in Period 2, mean, read-out: Cmax of Compound A in placebo treatment period) was 5.84 ng/mL. For the same molecule, the Cmax (20 mg, subjects who received placebo in Period 2, range, read-out: Cmax of Compound A in placebo treatment period) was 3.34 to 9.61 ng/mL.
